Like-named read-outs stand apart in the source and are kept apart here.
How the values were obtained:
Type in all cases: cell-based
GSPT1 protein = molecular target: T1, GSPT1 protein (Homo sapiens, UniProt P15170+Q96SW2); assay: Western blot detection of degradation activity of GSPT1 protein in Jeko-1 cells; settings: JeKo-1, 24 h, read-out: GSPT1 degradation rate (%)
T1 construct: endogenous in cells; host or cells: Jeko-1
Procedure: Test Example 1: Western Blot Detection of Degradation Activity of GSPT1 Protein by the Compounds
Cell line: Jeko-1 cell line was cultured with an RPMI1640 media containing 20% fetal bovine serum in an incubator at 37° C., 5% CO2, and saturated humidity.
DMSO control group and test compound (concentration shown in the table below) were set up, after processing for 24 hours, the cells were collected, pre-cooled cell lysate was added and left on ice for 10 minutes. The total protein of the cells was extracted, and the protein concentration was measured and quantified using the BCA method. Routine gel preparation, sample loading, electrophoresis were conducted, then the membrane was transferred, and sealed, wherein the primary antibody was diluted with a blocking solution at 1:500-5000. The membrane was immersed in the diluted primary antibody and incubated overnight at 4° C. After rinsing, the secondary antibody was diluted with a sealing solution at 1:10000-20000, the membrane was immersed in the diluted secondary antibody, and incubated at room temperature for 45 minutes. After rinsing, the results were tested on ODYSSEY (Li-COR). GAPDH was used as an internal reference control.
Image J software was used to perform gray level analysis on each band and the degradation rate of GSPT1 protein by the compounds was calculated.

HL-60 cells = assay: CTG method, inhibition of HL-60 cell proliferation; settings: Homo sapiens; HL-60, 72 hours; read-out: Cellular proliferation inhibition IC50
Procedure: (§1) Test Example 2: CTG Method for Detecting the Inhibitory Effect of Compounds of Formula on the Proliferation of HNT 34 or HL-60 Cells
(§2) HNT-34 or HL-60 cells were taken and cultured in RPMI1640 medium containing 20% fetal bovine serum. The cells were inoculated on a 96 well plate, with 1×10^4 cells per well, and incubated at 37° C. in a […] incubator. After adding the test compound, it was incubated for 72 hours. Then an appropriate amount of CTG reagent was added, the luminescence value was measured, and the inhibition rate was calculated.

HNT-34 cells = assay: CTG method, inhibition of HNT-34 cell proliferation; settings: HNT-34, 72 hours; read-out: Cellular proliferation inhibition IC50
Procedure: as §1, §2

T1 sequence (P15170 whole entry): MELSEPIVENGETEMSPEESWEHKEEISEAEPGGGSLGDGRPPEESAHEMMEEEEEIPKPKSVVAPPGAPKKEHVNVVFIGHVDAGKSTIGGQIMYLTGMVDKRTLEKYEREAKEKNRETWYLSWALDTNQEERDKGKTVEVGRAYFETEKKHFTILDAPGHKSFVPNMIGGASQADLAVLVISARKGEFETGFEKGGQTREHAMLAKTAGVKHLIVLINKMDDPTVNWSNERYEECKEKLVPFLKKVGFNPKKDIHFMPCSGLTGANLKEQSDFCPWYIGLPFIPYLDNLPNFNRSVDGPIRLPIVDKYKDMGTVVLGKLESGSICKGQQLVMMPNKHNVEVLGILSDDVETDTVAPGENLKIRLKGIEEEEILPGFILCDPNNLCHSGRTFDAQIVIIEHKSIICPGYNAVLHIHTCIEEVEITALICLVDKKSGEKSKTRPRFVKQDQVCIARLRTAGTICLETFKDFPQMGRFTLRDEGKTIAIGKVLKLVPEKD
T1 sequence (Q96SW2 whole entry): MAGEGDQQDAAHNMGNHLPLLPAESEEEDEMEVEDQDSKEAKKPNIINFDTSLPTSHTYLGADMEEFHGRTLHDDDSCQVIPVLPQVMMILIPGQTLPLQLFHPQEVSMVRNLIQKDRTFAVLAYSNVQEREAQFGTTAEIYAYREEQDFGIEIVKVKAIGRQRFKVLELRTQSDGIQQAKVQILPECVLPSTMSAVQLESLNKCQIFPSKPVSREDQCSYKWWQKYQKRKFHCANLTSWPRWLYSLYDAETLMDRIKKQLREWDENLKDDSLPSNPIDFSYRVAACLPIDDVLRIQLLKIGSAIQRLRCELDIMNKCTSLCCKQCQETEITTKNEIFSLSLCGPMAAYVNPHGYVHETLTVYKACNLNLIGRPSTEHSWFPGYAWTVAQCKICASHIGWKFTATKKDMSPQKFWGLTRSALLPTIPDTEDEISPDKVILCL
T1 sequence (Q16531 whole entry partner): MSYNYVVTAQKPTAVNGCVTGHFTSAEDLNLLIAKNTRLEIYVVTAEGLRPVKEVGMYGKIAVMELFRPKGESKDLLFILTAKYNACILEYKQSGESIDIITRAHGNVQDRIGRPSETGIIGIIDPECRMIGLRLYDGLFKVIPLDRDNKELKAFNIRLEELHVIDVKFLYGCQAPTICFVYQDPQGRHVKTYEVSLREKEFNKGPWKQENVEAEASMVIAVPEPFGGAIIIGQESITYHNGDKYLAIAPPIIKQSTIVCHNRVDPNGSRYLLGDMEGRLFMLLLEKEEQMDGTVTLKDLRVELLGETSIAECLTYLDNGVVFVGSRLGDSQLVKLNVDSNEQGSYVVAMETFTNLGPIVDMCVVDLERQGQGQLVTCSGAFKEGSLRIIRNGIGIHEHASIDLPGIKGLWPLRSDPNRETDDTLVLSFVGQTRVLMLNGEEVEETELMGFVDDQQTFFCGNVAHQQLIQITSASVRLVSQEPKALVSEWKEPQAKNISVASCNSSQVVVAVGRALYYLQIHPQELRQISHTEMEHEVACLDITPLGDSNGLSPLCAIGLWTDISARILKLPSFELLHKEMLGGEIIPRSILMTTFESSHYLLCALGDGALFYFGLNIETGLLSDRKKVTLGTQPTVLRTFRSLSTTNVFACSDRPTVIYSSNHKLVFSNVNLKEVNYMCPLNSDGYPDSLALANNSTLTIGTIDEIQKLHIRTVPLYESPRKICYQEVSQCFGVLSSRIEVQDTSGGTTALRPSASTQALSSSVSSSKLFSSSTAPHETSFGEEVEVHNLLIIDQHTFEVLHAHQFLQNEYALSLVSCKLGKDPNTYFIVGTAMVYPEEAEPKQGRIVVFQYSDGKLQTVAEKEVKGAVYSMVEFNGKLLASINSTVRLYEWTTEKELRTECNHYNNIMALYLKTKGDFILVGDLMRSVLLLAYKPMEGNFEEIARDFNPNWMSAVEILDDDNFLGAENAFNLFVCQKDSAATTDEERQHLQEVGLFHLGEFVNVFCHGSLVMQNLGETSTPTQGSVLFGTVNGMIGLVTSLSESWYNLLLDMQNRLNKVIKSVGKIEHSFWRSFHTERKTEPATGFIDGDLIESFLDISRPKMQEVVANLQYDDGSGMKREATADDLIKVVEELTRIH

Structure (SMILES)	inhibition at 0.1 µM (GSPT1 protein; 100 nM, Jeko-1 cells, 24 hours)	inhibition at 10 µM (GSPT1 protein; 10 μM, Jeko-1 cells, 24 hours)	IC50 (HL-60 cells)	IC50 (HNT-34 cells)	inhibition at 0.1 µM (GSPT1 protein)	inhibition at 10 µM (GSPT1 protein)	inhibition at 0.01 µM (GSPT1 protein; 10 nM, Jeko-1 cells, 24 hours)	inhibition at 1 µM (GSPT1 protein; 1 μM, Jeko-1 cells, 24 hours)
CC(C)(C)OC(=O)NC(C(=O)NCc1ccc2c(c1)CN(C1CCC(=O)NC1=O)C2=O)c1ccccc1Cl (stereo not drawn) [Compound 4-200, Tert butyl (1-(2-chlorophenyl)-2-((2-(2,6-dioxypiperidin-3-yl)-1-oxoisoindoline-5-yl)methyl)amino)-2-oxoethyl) carbamate]	99%	100%	8.3 nM	3.2 nM				
CC(C)(C)OC(=O)N[C@H](C(=O)NCc1ccc2c(c1)CN(C1CCC(=O)NC1=O)C2=O)C1CCCCC1 (stereo partly drawn) [Compound 5-56, Tert butyl ((1S)-1-cyclohexyl-2-((2-(2,6-dioxopyridin-3-yl)-1-oxoisoidoline-5-yl)methyl)amino)-2-oxoethyl) carbamate]	18.8%	84.1%	25.8 nM	18 nM				
CN(C(=O)CC1CCCC1)[C@H](C(=O)NCc1ccc2c(c1)CN(C1CCC(=O)NC1=O)C2=O)c1ccccc1 (stereo partly drawn) [Compound 5-50]	94.9%	96.9%	6.9 nM	5.8 nM				
O=C1CCC(N2Cc3cc(CNC(=O)C(CNC(=O)Oc4ccccc4)c4ccccc4)ccc3C2=O)C(=O)N1 (stereo not drawn) [Compound 5-10, Phenyl (3-((2-(2,6-dioxypiperidin-3-yl)-1-oxoisoindolin-5-yl)methyl)amino)-3-oxo-2-phenylpropyl) carbamate]			37.7 nM	36.9 nM	73%	90%		
CC(C)(C)OC(=O)N[C@H](C(=O)NCc1ccc2c(c1)CN(C1CCC(=O)NC1=O)C2=O)c1ccc(F)cc1 (stereo partly drawn) [Compound 4-136, Tert butyl ((1S)-2-((2-(2,6-dioxypiperidin-3-yl)-1-oxoisoidoline-5-yl)methyl)amino)-1-(4-fluorophenyl)-2-oxoethyl) carbamate]	82%	97%		3.6 nM				
CC(C)(C)OC(=O)N[C@H](C(=O)NCc1ccc2c(c1)CN(C1CCC(=O)NC1=O)C2=O)C1CCCC1 (stereo partly drawn) [Compound 5-57, Tert butyl ((1S)-1-cyclopentyl-2-((2-(2,6-dioxopyridin-3-yl)-1-oxoisoidoline-5-yl)methyl)amino)-2-oxoethyl) carbamate]	75%	98.1%	15 nM	7.5 nM				
CC(C)(C)OC(=O)N[C@H](C(=O)NCc1ccc2c(c1)CN(C1CCC(=O)NC1=O)C2=O)c1ccc2ccccc2c1 (stereo partly drawn) [Compound 4-133, tert butyl ((1S)-2-((2-(2,6-dioxypiperidin-3-yl)-1-oxoisoidoline-5-yl)methyl)amino)-1-(naphthalene-2-yl)-2-oxoethyl) carbamate]	79%	86%	14.3 nM	3.2 nM				
CN(C(=O)OC(C)(C)C)[C@@H](C(=O)NCc1ccc2c(c1)CN(C1CCC(=O)NC1=O)C2=O)c1ccccc1 (stereo partly drawn) [Compound 5-31, Tert butyl ((1R)-2-((2-(2,6-dioxypiperidin-3-yl)-1-oxoisoindoline-5-yl)methyl)amino)-2-oxo-1-phenylethy 1) (methyl) carbamate]	84%	99%	12.5 nM	6.6 nM				
CC(C)OC(=O)N[C@@H](CC1CCCCC1)C(=O)NCc1ccc2c(c1)CN(C1CCC(=O)NC1=O)C2=O (stereo partly drawn) [Compound 5-94, Isopropyl ((2S)-3-cyclohexyl-1-((2-(2,6-dioxypiperidin-3-yl)-1-oxoisoindolin-5-yl)methyl)amino)-1-oxopropan-2-yl) carbamate]			12.8 nM	7.4 nM	85%	95%		
CC(C)(C)OC(=O)NC(CC(=O)NCc1ccc2c(c1)CN(C1CCC(=O)NC1=O)C2=O)C1CCCC1 (stereo not drawn) [Compound 5-99, Tert butyl (1-cyclopentyl-3-((2-(2,6-dioxypiperidin-3-yl)-1-oxoisoindoline-5-yl)methyl)amino)-3-oxopropyl) carbamate]	98%	99%						
CC(C)(C)OC(=O)NCC(C(=O)NCc1ccc2c(c1)CN(C1CCC(=O)NC1=O)C2=O)c1ccccc1 (stereo not drawn) [Compound 4-131]	96%	97%						
O=C1CCC(N2Cc3cc(CNC(=O)C(CNC(=O)C4CCCC4)c4ccccc4)ccc3C2=O)C(=O)N1 [Compound 5-53, N-((2R)-3-((2-(2,6-dioxypiperidin-3-yl)-1-oxoisoindolin-5-yl)methyl)amino)-3-oxo-2-phen ylpropyl) cyclopentyl Formamide]	26.1%	91.2%						
O=C1CCC(N2Cc3cc(CNC(=O)C(CNC(=O)C4CCCC4)C4CCCCC4)ccc3C2=O)C(=O)N1 (stereo not drawn) [Compound 5-59]	36%	93.7%						
CC(C)(C)OC(=O)N[C@H](Cc1ccccc1)C(=O)NCc1ccc2c(c1)CN(C1CCC(=O)NC1=O)C2=O (stereo partly drawn) [Compound 4-132, Tert butyl ((2R)-1-((2-(2,6-dioxypiperidin-3-yl)-1-oxoisoindoline-5-yl)methyl)amino)-1-oxo-3-phenylpro p-2-yl) carbamate]	93%	96%						
CC(C)OC(=O)N[C@@H](Cc1ccccc1)C(=O)NCc1ccc2c(c1)CN(C1CCC(=O)NC1=O)C2=O (stereo partly drawn) [Compound 5-39, Isopropyl ((2S)-1-(2-(2,6-dioxypiperidin-3-yl)-1-oxoisoindoline-5-yl)methyl)amino)-1-oxo-3-phenylprop-2-yl) carbamate]					65.2%	85.8%		
CC(C)(C)OC(=O)N[C@H](Cc1ccccc1Cl)C(=O)NCc1ccc2c(c1)CN(C1CCC(=O)NC1=O)C2=O (stereo partly drawn) [Compound 5-83, Tert butyl ((2R)-3-(2-chlorophenyl)-1-((2-(2,6-dioxopyridin-3-yl)-1-oxoisoidoline-5-yl)methyl)amino)-1-oxopropan-2-yl) carbamate]	96.2%	95.5%						
O=C1CCC(N2Cc3cc(CNC(=O)[C@H](CC4CCCCC4)NC(=O)OC4CCCC4)ccc3C2=O)C(=O)N1 (stereo partly drawn) [Compound 5-93, Cyclopentyl ((2S)-3-cyclohexyl-1-((2-(2,6-dioxopyridin-3-yl)-1-oxoisoidoline-5-yl)methyl)amino)-1-oxopropan-2-yl) carbamate]					99%	100%		
CC(C)(C)OC(=O)N[C@H](C(=O)NCc1ccc2c(c1)CN([C@H]1CCC(=O)NC1=O)C2=O)c1ccccc1Cl [Compound 5-17b, Tert butyl ((1S)-1-(2-chlorophenyl)-2-((2-((S)-2,6-dioxopyridin-3-yl)-1-oxoisoidoline-5-yl)methyl)amino)-2-oxoethyl) carbamate]			4.6 nM				57%	100%
CC(C)(C)OC(=O)NC(CC(=O)NCc1ccc2c(c1)CN(C1CCC(=O)NC1=O)C2=O)c1ccccc1 (stereo not drawn) [Compound 4-130, Tert butyl (3-((2-(2,6-dioxypiperidin-3-yl)-1-oxoisoindolin-5-yl)methyl)amino)-3-oxo-1-phenylpropyl) carbamate]	51%	94%						
CC(C)(C)NC(=O)CNC(Cc1ccccc1)C(=O)NCc1ccc2c(c1)CN(C1CCC(=O)NC1=O)C2=O (stereo not drawn) [Compound 4-186]	26%	56%						
COC(C(=O)N[C@H](C(=O)NCc1ccc2c(c1)CN(C1CCC(=O)NC1=O)C2=O)c1ccccc1)c1ccccc1 (stereo partly drawn) [Compound 4-199]	14%	81%						

Reference: US20250214960A1, “COMPOUNDS HAVING ACTIVITY OF DEGRADING GSPT1 AND APPLICATION THEREOF” (SHANGHAI MEIZER PHARMACEUTICALS CO., LTD., priority 2021, published 2025)
